Test results reported in US20140030209A1, “TOPICAL LIQUID AGENT FOR THE TREATMENT OF DERMATOPHYTOSIS” (MEIJI SEIKA PHARMA CO., LTD., priority 2012, published 2014).

Columns and labels:
[1] = test system: Trichophyton rubrum (T. rubrum) ATCC10218; experiment: Antifungal activity against dermatophytes (MIC, WST8); format: cell-based; conditions: 80% growth inhibiting concentration; RPMI1640/MOPS, 28° C., 4 days, 1% DMSO
Protocol: (§1) Measurement of the antifungal activity against dermatophytes of the compound of the formula (I) contained in the topical liquid agent of the present invention was carried out by the following method. The compound to be evaluated was used by dissolving in dimethyl sulfoxide (DMSO). As a medium for the test, RPMI1640 medium containing 0.165M of 3-morpholinopropanesulfonic acid (MOPS) was used. As fungi to be tested, Trichophyton mentagrophytes (T. mentagrophytes) ATCC18748 or Trichophyton rubrum (T. rubrum) ATCC10218 was used. The testing fungal strain was apportioned to […] with a concentration of 1×10^4 conidia/ml, mixed with a compound to be evaluated on a 96-well half area plate so that the DMSO concentration became 1%, and cultured at a cultivation temperature of 28° C. for 3 days (T. mentagrophytes) or 4 days (T. rubrum). Thereafter, 5 μl of Cell Counting Kit 8 (WST8) was added thereto, and absorbances at 450 nm and 595 nm were measured to use these as background values. Thereafter, these were cultivated at 28° C. for 5 hours (T. mentagrophytes) or overnight (T. rubrum) to cause a color, and absorbances at 450 nm and 595 nm were measured again. A growth inhibiting rate was calculated from the difference to the background values, and a 80% growth inhibiting concentration was made an MIC value […].

[2] = test system: Trichophyton mentagrophytes (T. mentagrophytes) ATCC18748; experiment: as above; format: cell-based; conditions: 80% growth inhibiting concentration; RPMI1640/MOPS, 28° C., 3 days, 1% DMSO
Protocol: as §1

MIC (T. rubrum) [1] | MIC (T. mentagrophytes) [2] | SMILES
B (4 to 16 μg/ml) | – | Cc1cc(C)n(-c2ccccc2O)n1 [compound 1]
D (>32 to 64 μg/ml) | – | Cc1cc(C(F)(F)F)nn1-c1ccccc1O [compound 5]
A (≦2 μg/ml) | A (≦1 μg/ml) | Cc1nn(-c2ccccc2O)c(C)c1C [compound 9]
D (>32 to 64 μg/ml) | – | Cc1cc(C)n(-c2cc(Cl)ccc2O)n1 [compound 11]
B (4 to 16 μg/ml) | A (≦1 μg/ml) | Cc1nn(-c2ccccc2O)c(C)c1Cl [compound 13]
B (4 to 16 μg/ml) | – | CCc1cc(CC)n(-c2ccccc2O)n1 [compound 14]
C (16 to 32 μg/ml) | – | Cc1cc(C)n(-c2cccc(O)c2O)n1 [compound 15]
A (≦2 μg/ml) | A (≦1 μg/ml) | CCc1c(C)nn(-c2ccccc2O)c1C [compound 17]
B (4 to 16 μg/ml) | – | Cc1nn(-c2ccc(F)cc2O)c(C)c1C [compound 18]
C (16 to 32 μg/ml) | – | Cc1nn(-c2cc(O)ccc2O)c(C)c1Cl [compound 19]
D (>32 to 64 μg/ml) | – | Cc1nn(-c2cc(F)ccc2O)c(C)c1C [compound 20]
B (4 to 16 μg/ml) | A (≦1 μg/ml) | Cc1nn(-c2ccc(F)cc2O)c(C)c1Cl [compound 21]
D (>32 to 64 μg/ml) | – | CCOC(=O)c1c(C)nn(-c2ccccc2O)c1C [compound 22]
D (>32 to 64 μg/ml) | – | COC(=O)CCc1c(C)nn(-c2ccccc2O)c1C [compound 23]
C (16 to 32 μg/ml) | A (≦1 μg/ml) | CCCCc1c(C)nn(-c2ccccc2O)c1C [compound 24]
B (4 to 16 μg/ml) | – | Cc1cc(C)n(-c2ccc(F)cc2O)n1 [compound 25]
A (≦2 μg/ml) | A (≦1 μg/ml) | Cc1cc(C)n(-c2ccc(Cl)cc2O)n1 [compound 26]
C (16 to 32 μg/ml) | – | Cc1cc(C)n(-c2ccc([N+](=O)[O-])cc2O)n1 [compound 28]
A (≦2 μg/ml) | A (≦1 μg/ml) | Cc1nn(-c2ccc(Cl)cc2O)c(C)c1C [compound 30]
B (4 to 16 μg/ml) | – | Cc1cc(C)n(-c2ccc(N)cc2O)n1 [compound 31]
B (4 to 16 μg/ml) | – | Cc1nn(-c2ccc([N+](=O)[O-])cc2O)c(C)c1C [compound 32]
A (≦2 μg/ml) | – | Cc1cc(C)n(-c2ccc(O)cc2O)n1 [compound 33]
B (4 to 16 μg/ml) | – | Cc1nn(-c2ccc(N)cc2O)c(C)c1C [compound 34]
C (16 to 32 μg/ml) | – | COC(=O)c1ccc(-n2nc(C)cc2C)c(O)c1 [compound 35]
D (>32 to 64 μg/ml) | – | Cc1cc(C)n(-c2c(N)cccc2O)n1 [compound 36]

MIC (T. rubrum) [1] | MIC (T. mentagrophytes) [2] | SMILES
B (4 to 16 μg/ml) | – | Cc1cc(C)n(-c2ccc(C(=O)O)cc2O)n1 [compound 37]
B (4 to 16 μg/ml) | – | Cc1cc(C)n(-c2ccc(C(=O)N(C)C)cc2O)n1 [compound 38]
C (16 to 32 μg/ml) | – | Cc1cc(C)n(-c2ccc(C(N)=O)cc2O)n1 [compound 39]
D (>32 to 64 μg/ml) | – | Cc1nn(-c2ccc(C(=O)O)cc2O)c(C)c1C [compound 40]
D (>32 to 64 μg/ml) | – | Cc1nn(-c2ccc(C(N)=O)cc2O)c(C)c1C [compound 41]
D (>32 to 64 μg/ml) | – | Cc1nn(-c2ccc(C(N)=O)cc2O)c(C)c1Cl [compound 42]
D (>32 to 64 μg/ml) | – | Cc1cc(C)n(-c2c(O)cccc2O)n1 [compound 43]
A (≦2 μg/ml) | A (≦1 μg/ml) | Cc1ccc(-n2nc(C)cc2C)c(O)c1 [compound 44]
A (≦2 μg/ml) | A (≦1 μg/ml) | COc1ccc(-n2nc(C)cc2C)c(O)c1 [compound 45]
D (>32 to 64 μg/ml) | – | Cc1cc(C)n(-c2c(C)cccc2O)n1 [compound 46]
B (4 to 16 μg/ml) | – | Cc1cc(C)n(-c2ccc(CO)cc2O)n1 [compound 47]
B (4 to 16 μg/ml) | – | CNc1ccc(-n2nc(C)cc2C)c(O)c1 [compound 48]
D (>32 to 64 μg/ml) | – | Cc1ccc(O)c(-n2nc(C)cc2C)c1 [compound 49]
B (4 to 16 μg/ml) | – | Cc1cc(C)n(-c2ccc(C(F)(F)F)cc2O)n1 [compound 50]
D (>32 to 64 μg/ml) | – | Cc1cc(C)n(-c2cccc(C)c2O)n1 [compound 51]
A (≦2 μg/ml) | A (≦1 μg/ml) | CCc1ccc(-n2nc(C)cc2C)c(O)c1 [compound 52]
B (4 to 16 μg/ml) | – | Cc1nn(-c2ccccc2O)c(C)c1F [compound 53]
A (≦2 μg/ml) | A (≦1 μg/ml) | Cc1cc(C)n(-c2ccc(Br)cc2O)n1 [compound 54]
A (≦2 μg/ml) | A (≦1 μg/ml) | Cc1nn(-c2ccc(Br)cc2O)c(C)c1Cl [compound 55]
A (≦2 μg/ml) | A (≦1 μg/ml) | Cc1nn(-c2ccc(Br)cc2O)c(C)c1C [compound 56]
B (4 to 16 μg/ml) | – | CC(=O)Oc1ccc(-n2nc(C)cc2C)c(O)c1 [compound 57]
A (≦2 μg/ml) | – | CC(=O)Oc1ccc(-n2nc(C)c(Cl)c2C)c(O)c1 [compound 58]
B (4 to 16 μg/ml) | – | CC(=O)Oc1ccc(-n2nc(C)c(C)c2C)c(O)c1 [compound 59]
A (≦2 μg/ml) | A (≦1 μg/ml) | Cc1nn(-c2ccc(O)cc2O)c(C)c1Cl [compound 63]
